Data on seven molecules can be found in PubChem BioAssay (NCI).

What all share (experiment): NCI anticancer screen, dose series, 48 h
In experiment [1] the test system is CAKI-1 renal.
For experiment [2], the system named is DU-145 prostate.
For experiment [3], the system named is OVCAR-5 ovarian.
Experiment [4] deals with HCC-2998 colon.
Experiment [5] relates to SR leukemia.
Experiment [6] has as its system SN12C renal.
The test system of experiment [7] is OVCAR-4 ovarian.
The subject of experiment [8] is MDA-MB-435.
Experiment [9] deals with COLO 205 colon.
Experiment [10] deals with NCI-H23 lung.
The subject of experiment [11] is NCI-H226 lung.

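Protocol summary: plate cells (96-well), add compound at 5 concentrations, incubate 48 h, interpolate endpoints linearly. TGI: total growth inhibition.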

Consider `Cc1ccc(S(=O)(=O)n2ccc(-c3ccc4ccn(S(=O)(=O)c5ccc(C)cc5)c4c3)c2)cc1`, for which the TGI in experiment [1], in experiment [2], in [3], in experiment [4], in [5] and in experiment [6] was greater than 100 µM in each case. The TGI in [7], in experiment [8], in [9], in [10] and in experiment [11] was greater than 100 µM each time.

Regarding `CCCC(=O)NC(Nc1ccc(F)cc1)(C(F)(F)F)C(F)(F)F`, the TGI in [1], in experiment [2], in [3], in experiment [4], in experiment [5] and in experiment [6] was greater than 100 µM each time. In addition, the TGI in experiment [7] was greater than 74.2 µM; in [8] it was greater than 100 µM; in [9], greater than 92.8 µM; in experiment [10], greater than 100 µM; in experiment [11] it was greater than 100 µM.

Consider `CCCCCCCCCCCCCCCCCC(=O)Nc1ccn(C2CCC(COP(=O)(O)O)O2)c(=O)n1` (configuration not stated), for which the TGI in [1], in experiment [2], in experiment [3], in [4], in [5] and in [6] was greater than 100 µM each time. Besides, the TGI in experiment [7], in experiment [8], in experiment [9], in [10] and in experiment [11] was greater than 100 µM in each case.

Turning to `COC12C=CC(C=C1C#N)CC2` (configuration not stated) (tested in a mixture with another compound), the TGI in experiment [1], in experiment [2], in [3], in [4], in experiment [5] and in [6] was greater than 100 µM in each case. Also, the TGI in [7], in [8], in experiment [9], in experiment [10] and in experiment [11] was greater than 100 µM each time.

Take `O=C1CS[C@@](CC(c2ccc(Cl)cc2)c2ccc(Cl)cc2)(c2ccc(Cl)cc2)N1`: the TGI was greater than 100 µM in [1]; greater than 100 µM in [2]; greater than 100 µM in [3]; greater than 100 µM in [4]; 26.3 µM in experiment [5]; 5.42 µM in experiment [6]. For the same molecule, the TGI in [7] is greater than 100 µM; in [8], greater than 100 µM; in [9], 17.9 µM; in experiment [10], greater than 100 µM; in experiment [11] it was 42.2 µM.

With `O=C1C2=C(SCCS2)C(=O)c2c(Sc3ccc(Cl)cc3)c(Sc3ccc(Cl)cc3)c(Sc3ccc(Cl)cc3)c(Sc3ccc(Cl)cc3)c21`, the TGI in experiment [1] was greater than 100 µM; in experiment [2], greater than 100 µM; in experiment [3], greater than 100 µM; in experiment [4], greater than 100 µM; in experiment [5] it was 36.2 µM; in experiment [6], greater than 100 µM. For the same molecule, the TGI in [7], in experiment [8], in experiment [9], in experiment [10] and in experiment [11] was greater than 100 µM throughout.

Turning to `CN(C)CCNC(=O)c1ccc(Cl)c2cc3ccccc3nc12`, the TGI in [1] was 11.6 µM; in experiment [2], 6.2 µM; in [3], 10.7 µM; in experiment [4] it was 3.52 µM; in experiment [5], 3.03 µM; in [6], 4.18 µM. The TGI in [7] amounted to 3.34 µM; in experiment [8], 2.22 µM; in experiment [9] it was 1.64 µM; in experiment [10], 2.08 µM; in experiment [11], 4.7 µM.
